Activity calls are given as the source filed them.
Key:
[1] = viability loss in THP-1 monocytes – THP-1 cells, cytotoxicity control for Vif-APOBEC3G degradation inhibitor project, dose response (AID 1117359); assay type: functional; details: THP-1
SUMO-activating enzyme = SUMO-activating enzyme (Homo sapiens, UniProt Q9UBT2); test: blockers of SAE1/SAE2–UBC9 SUMO transfer – biochemical, HTRF, uHTS, primary screen (AID 2006); assay type: protein-complex assay
[2] = target: Mothers against decapentaplegic homolog 3 (Homo sapiens, UniProt P84022); test: inhibitors of SMAD-driven TGF-beta signaling – dose response (AID 715); assay type: functional
[3] = target: Intestinal-type alkaline phosphatase (Homo sapiens, UniProt P09923); test: Dose Response confirmation of uHTS hits from a small molecule inhibitors of human intestinal alkaline phosphatase via a luminescent assay. [Related pubchem assays (depositor defined):AID2544, AID2574]; assay type: functional
Caspase-3 = target: T1, Caspase-3 (Homo sapiens, UniProt P42574); test: Dose-response confirmation of uHTS inhibitor hits of Sentrin-Specific Protease 8 in a Caspase-3 Fluorescence assay.; assay type: functional
T1 sequence (P42574 whole entry): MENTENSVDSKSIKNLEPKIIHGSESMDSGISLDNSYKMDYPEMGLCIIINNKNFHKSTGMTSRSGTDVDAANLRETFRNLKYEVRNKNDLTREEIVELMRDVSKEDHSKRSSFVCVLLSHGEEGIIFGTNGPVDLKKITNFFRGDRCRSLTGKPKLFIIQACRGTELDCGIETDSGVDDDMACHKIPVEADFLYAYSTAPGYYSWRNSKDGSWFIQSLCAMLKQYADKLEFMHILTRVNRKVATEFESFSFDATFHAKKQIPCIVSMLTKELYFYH

[4] = target: T2, Histone-lysine N-methyltransferase NSD2 (Homo sapiens, UniProt O96028); assay type: biochemical
T2 sequence (O96028 whole entry): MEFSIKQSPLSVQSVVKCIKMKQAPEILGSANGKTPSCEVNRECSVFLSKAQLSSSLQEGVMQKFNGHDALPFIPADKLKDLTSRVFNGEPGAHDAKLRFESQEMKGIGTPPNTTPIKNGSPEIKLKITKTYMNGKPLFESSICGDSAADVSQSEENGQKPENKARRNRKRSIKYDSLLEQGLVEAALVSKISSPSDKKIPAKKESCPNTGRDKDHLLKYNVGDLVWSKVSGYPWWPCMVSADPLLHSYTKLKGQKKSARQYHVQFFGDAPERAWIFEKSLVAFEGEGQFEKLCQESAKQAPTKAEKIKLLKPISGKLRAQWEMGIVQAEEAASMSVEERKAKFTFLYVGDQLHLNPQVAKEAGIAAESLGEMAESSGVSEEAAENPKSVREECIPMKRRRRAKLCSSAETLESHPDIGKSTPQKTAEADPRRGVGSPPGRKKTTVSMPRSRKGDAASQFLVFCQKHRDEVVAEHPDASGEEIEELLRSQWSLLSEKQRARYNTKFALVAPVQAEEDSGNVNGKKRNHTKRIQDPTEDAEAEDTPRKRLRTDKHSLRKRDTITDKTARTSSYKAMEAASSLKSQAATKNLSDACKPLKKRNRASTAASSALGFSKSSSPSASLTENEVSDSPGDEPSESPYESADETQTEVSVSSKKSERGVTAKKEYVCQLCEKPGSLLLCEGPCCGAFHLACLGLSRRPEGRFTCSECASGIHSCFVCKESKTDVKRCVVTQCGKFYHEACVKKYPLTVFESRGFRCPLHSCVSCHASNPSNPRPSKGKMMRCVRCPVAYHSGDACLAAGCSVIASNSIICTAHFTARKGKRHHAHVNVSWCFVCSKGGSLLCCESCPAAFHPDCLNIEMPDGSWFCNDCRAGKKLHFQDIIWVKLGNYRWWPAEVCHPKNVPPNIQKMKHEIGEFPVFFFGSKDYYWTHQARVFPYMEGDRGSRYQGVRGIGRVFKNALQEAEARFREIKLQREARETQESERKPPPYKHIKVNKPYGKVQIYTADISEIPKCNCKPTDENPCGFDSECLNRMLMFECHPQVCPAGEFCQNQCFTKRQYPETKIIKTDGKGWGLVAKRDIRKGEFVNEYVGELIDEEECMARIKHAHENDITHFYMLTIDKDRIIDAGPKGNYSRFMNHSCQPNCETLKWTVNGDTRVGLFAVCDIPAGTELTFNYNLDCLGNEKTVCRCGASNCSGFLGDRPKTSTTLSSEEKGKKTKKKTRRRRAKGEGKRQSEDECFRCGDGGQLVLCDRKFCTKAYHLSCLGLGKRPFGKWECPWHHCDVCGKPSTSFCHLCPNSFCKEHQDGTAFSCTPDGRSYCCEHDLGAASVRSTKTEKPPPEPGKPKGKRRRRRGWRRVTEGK

[5] = target: T3, Sentrin-specific protease 8 (Homo sapiens, UniProt Q96LD8); assay type: functional
T3 sequence (Q96LD8 whole entry): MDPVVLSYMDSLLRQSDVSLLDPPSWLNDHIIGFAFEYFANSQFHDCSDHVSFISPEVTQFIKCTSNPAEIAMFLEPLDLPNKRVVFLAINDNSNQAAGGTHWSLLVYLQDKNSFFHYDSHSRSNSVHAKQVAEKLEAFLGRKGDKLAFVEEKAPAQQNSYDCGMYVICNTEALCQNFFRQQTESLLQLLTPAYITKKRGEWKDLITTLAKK

[6] = target: T3, Sentrin-specific protease 8; assay type: functional; remark: listed apart in the source

Sequence of SUMO-activating enzyme (Q9UBE0 whole entry): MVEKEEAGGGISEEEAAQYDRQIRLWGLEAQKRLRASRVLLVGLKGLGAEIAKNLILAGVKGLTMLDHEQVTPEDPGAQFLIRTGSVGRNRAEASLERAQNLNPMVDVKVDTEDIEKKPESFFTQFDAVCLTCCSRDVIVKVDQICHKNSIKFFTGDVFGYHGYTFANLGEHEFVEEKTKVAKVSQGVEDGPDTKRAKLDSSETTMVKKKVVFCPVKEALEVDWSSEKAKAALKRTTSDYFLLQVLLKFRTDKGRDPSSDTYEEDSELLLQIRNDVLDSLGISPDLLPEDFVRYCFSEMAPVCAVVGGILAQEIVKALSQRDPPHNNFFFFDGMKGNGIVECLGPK
Sequence of SUMO-activating enzyme (Q9UBT2 whole entry): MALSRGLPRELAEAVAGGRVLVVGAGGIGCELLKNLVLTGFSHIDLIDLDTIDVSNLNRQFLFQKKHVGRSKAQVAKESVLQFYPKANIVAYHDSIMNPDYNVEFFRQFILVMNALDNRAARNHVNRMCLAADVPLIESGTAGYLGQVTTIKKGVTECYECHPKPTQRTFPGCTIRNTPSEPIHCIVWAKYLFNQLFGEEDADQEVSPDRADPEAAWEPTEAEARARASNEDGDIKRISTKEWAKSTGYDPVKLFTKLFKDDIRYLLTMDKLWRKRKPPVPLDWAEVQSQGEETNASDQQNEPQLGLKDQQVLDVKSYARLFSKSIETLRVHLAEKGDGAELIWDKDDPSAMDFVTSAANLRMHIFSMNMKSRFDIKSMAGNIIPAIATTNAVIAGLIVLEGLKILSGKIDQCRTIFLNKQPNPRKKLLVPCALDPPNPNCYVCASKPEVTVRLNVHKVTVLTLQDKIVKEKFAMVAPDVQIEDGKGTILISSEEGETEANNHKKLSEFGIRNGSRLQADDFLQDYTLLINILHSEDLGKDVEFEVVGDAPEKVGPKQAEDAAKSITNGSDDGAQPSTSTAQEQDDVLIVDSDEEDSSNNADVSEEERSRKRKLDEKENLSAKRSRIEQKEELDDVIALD
Sequence of Mothers against decapentaplegic homolog 3 (P84022 whole entry): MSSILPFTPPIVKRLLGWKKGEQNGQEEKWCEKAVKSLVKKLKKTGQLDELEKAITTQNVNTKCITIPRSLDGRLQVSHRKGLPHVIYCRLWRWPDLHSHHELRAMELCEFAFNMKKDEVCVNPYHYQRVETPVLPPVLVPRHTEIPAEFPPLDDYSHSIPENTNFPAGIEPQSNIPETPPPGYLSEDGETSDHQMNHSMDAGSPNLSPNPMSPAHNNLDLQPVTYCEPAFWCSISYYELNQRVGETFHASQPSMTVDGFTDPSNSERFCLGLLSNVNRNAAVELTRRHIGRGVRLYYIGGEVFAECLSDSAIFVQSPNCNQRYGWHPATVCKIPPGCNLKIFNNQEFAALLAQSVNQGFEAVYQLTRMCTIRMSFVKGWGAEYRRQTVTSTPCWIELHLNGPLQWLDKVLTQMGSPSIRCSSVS
Sequence of Intestinal-type alkaline phosphatase (P09923 whole entry): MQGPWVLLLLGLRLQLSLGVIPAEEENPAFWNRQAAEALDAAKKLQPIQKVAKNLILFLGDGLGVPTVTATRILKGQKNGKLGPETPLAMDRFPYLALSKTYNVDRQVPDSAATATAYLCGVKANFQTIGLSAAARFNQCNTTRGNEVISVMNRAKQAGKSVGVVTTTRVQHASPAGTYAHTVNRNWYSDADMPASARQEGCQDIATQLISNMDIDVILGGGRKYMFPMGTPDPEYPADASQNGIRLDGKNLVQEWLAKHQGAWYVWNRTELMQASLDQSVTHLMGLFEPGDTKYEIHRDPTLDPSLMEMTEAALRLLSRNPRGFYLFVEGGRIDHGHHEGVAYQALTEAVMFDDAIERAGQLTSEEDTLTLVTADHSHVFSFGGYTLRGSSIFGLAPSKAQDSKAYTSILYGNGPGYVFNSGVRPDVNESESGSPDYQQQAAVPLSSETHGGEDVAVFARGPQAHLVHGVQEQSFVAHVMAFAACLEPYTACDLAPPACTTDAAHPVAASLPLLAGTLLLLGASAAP

IC50 (Caspase-3)	AC50 [4]	Structure (SMILES)	CC50 [1]	IC50 (SUMO-activating enzyme)	IC50 [2]	IC50 [3]	IC50 [5]	IC50 [6]
		Oc1ccc(/N=C/c2ccc(OCc3ccccc3)cc2)cc1	> 40 µM (active)					
		Nc1c(N2CCCC2)cc(Cl)c2nonc12		5.6 µM (active)	18.3 µM (active)	> 100 µM (inactive)		
20.9 µM (active)	2.56 µM (active)	O=C(NNc1cc(N2CCOCC2)nc(N2CCOCC2)n1)c1ccc([N+](=O)[O-])cc1		15.8 µM (active)			2.86 µM (active)	3.2 µM (active)
